Experimental data taken from ChEMBL document CHEMBL1201862, “PubChem BioAssay data set” (2004).
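Dose response: 5 concentrations. Exposure: 48 h. Format: 96-well plates. Endpoint: linear interpolation; highest concentration if not reached. GI50: concentration for 50% inhibition of growth.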 The source made the active and inactive calls. Rule as the data show it: active = GI50 up to about 1.1 µM and inactive = higher.

What was measured:
Test in all cases: NCI anticancer screen, dose series, 48 h
786-0 = system: 786-0
SW-620 = system: SW-620
NCI/ADR-RES = system: NCI/ADR-RES
SF-539 = system: SF-539
KM12 = system: KM12
OVCAR-4 = system: OVCAR-4
COLO 205 = system: COLO 205
BT-549 = system: BT-549
LOX IMVI = system: LOX IMVI
A549 = system: A549
CCRF-CEM = system: CCRF-CEM
RPMI-8226 = system: RPMI-8226
EKVX = system: EKVX
A498 = system: A498
SK-MEL-5 = system: SK-MEL-5
K562 = system: K562
OVCAR-8 = system: OVCAR-8
OVCAR-3 = system: OVCAR-3
SNB-75 = system: SNB-75

SMILES	GI50 (786-0)	GI50 (SW-620)	GI50 (NCI/ADR-RES)	GI50 (SF-539)	GI50 (KM12)	GI50 (OVCAR-4)	GI50 (COLO 205)	GI50 (BT-549)	GI50 (LOX IMVI)	GI50 (A549)	GI50 (CCRF-CEM)	GI50 (RPMI-8226)	GI50 (EKVX)	GI50 (A498)	GI50 (SK-MEL-5)	GI50 (K562)	GI50 (OVCAR-8)	GI50 (OVCAR-3)	GI50 (SNB-75)
COC(=O)c1ccccc1C#CC#Cc1ccccc1C(=O)OC	> 10 µM (inactive)	> 10 µM (inactive)	> 10 µM (inactive)	> 10 µM (inactive)	3.19 µM (inactive)	2.9 µM (inactive)	1.69 µM (inactive)	> 10 µM (inactive)	7 µM (inactive)	> 10 µM (inactive)	> 10 µM (inactive)	> 10 µM (inactive)	> 10 µM (inactive)	> 10 µM (inactive)	> 10 µM (inactive)	8.57 µM (inactive)	6.21 µM (inactive)	2.55 µM (inactive)	–
CCN(CCN(CC)C(=O)Nc1ccccc1)C(=O)Nc1ccccc1	> 100 µM (inactive)	> 100 µM (inactive)	> 100 µM (inactive)	–	–	–	> 100 µM (inactive)	> 100 µM (inactive)	> 100 µM (inactive)	> 100 µM (inactive)	> 100 µM (inactive)	> 100 µM (inactive)	> 100 µM (inactive)	> 100 µM (inactive)	> 100 µM (inactive)	> 100 µM (inactive)	> 100 µM (inactive)	–	> 100 µM (inactive)
Cc1cc(SCC(=O)c2ccccc2)nc2ccccc12	> 100 µM (inactive)	> 100 µM (inactive)	> 100 µM (inactive)	> 100 µM (inactive)	> 100 µM (inactive)	> 100 µM (inactive)	> 100 µM (inactive)	> 100 µM (inactive)	> 100 µM (inactive)	67.1 µM (inactive)	–	> 100 µM (inactive)	8.11 µM (inactive)	> 100 µM (inactive)	> 100 µM (inactive)	> 100 µM (inactive)	> 100 µM (inactive)	41.2 µM (inactive)	36.7 µM (inactive)
C=C1CC(C)(COc2ccc3c(C)c(Cl)c(=O)oc3c2)OC1=O (stereo unspecified)	1.35 µM (inactive)	0.461 µM (active)	2.35 µM (inactive)	3.61 µM (inactive)	3.65 µM (inactive)	2.31 µM (inactive)	0.729 µM (active)	1.31 µM (inactive)	0.964 µM (active)	11.1 µM (inactive)	0.331 µM (active)	0.391 µM (active)	5.9 µM (inactive)	–	1.43 µM (inactive)	0.518 µM (active)	2.75 µM (inactive)	2.89 µM (inactive)	2.02 µM (inactive)
N/C(=N\Nc1ccc(S(N)(=O)=O)cc1)c1cnccn1	> 100 µM (inactive)	> 100 µM (inactive)	> 100 µM (inactive)	–	> 100 µM (inactive)	> 100 µM (inactive)	> 100 µM (inactive)	> 100 µM (inactive)	> 100 µM (inactive)	> 100 µM (inactive)	> 100 µM (inactive)	> 100 µM (inactive)	> 100 µM (inactive)	> 100 µM (inactive)	> 100 µM (inactive)	> 100 µM (inactive)	> 100 µM (inactive)	> 100 µM (inactive)	> 100 µM (inactive)
COC1O[C@H]2[C@H]3[C@@H]1[C@@H](OS(=O)(=O)c1ccc(C)cc1)C(=O)N3C[C@H]2O (stereo partly specified)	> 100 µM (inactive)	> 100 µM (inactive)	> 100 µM (inactive)	> 100 µM (inactive)	> 100 µM (inactive)	> 100 µM (inactive)	> 100 µM (inactive)	> 100 µM (inactive)	> 100 µM (inactive)	> 100 µM (inactive)	–	61.2 µM (inactive)	> 100 µM (inactive)	> 100 µM (inactive)	> 100 µM (inactive)	65.9 µM (inactive)	> 100 µM (inactive)	> 100 µM (inactive)	–
C1CCSCCCCSCCCCSCCCCSC1	> 100 µM (inactive)	> 100 µM (inactive)	> 100 µM (inactive)	> 100 µM (inactive)	> 100 µM (inactive)	> 100 µM (inactive)	> 100 µM (inactive)	> 100 µM (inactive)	> 100 µM (inactive)	> 100 µM (inactive)	–	> 100 µM (inactive)	> 100 µM (inactive)	> 100 µM (inactive)	> 100 µM (inactive)	> 100 µM (inactive)	> 100 µM (inactive)	> 100 µM (inactive)	64 µM (inactive)
CCc1nnc(CC)n1N1C(=O)CCC1=O	> 100 µM (inactive)	> 100 µM (inactive)	> 100 µM (inactive)	> 100 µM (inactive)	> 100 µM (inactive)	> 100 µM (inactive)	> 100 µM (inactive)	> 100 µM (inactive)	> 100 µM (inactive)	> 100 µM (inactive)	> 100 µM (inactive)	> 100 µM (inactive)	> 100 µM (inactive)	–	> 100 µM (inactive)	> 100 µM (inactive)	> 100 µM (inactive)	> 100 µM (inactive)	> 100 µM (inactive)
C[C@@H](NC(=O)[C@@H]1C[C@]1(C)CO)c1cccc2ccccc12	> 100 µM (inactive)	> 100 µM (inactive)	> 100 µM (inactive)	–	> 100 µM (inactive)	> 100 µM (inactive)	> 100 µM (inactive)	> 100 µM (inactive)	–	> 100 µM (inactive)	> 100 µM (inactive)	> 100 µM (inactive)	> 100 µM (inactive)	> 100 µM (inactive)	> 100 µM (inactive)	> 100 µM (inactive)	> 100 µM (inactive)	> 100 µM (inactive)	> 100 µM (inactive)
C/C(=C\c1ccccn1)c1ccccn1	> 100 µM (inactive)	–	> 100 µM (inactive)	–	> 100 µM (inactive)	> 100 µM (inactive)	> 100 µM (inactive)	> 100 µM (inactive)	–	> 100 µM (inactive)	–	> 100 µM (inactive)	> 100 µM (inactive)	> 100 µM (inactive)	> 100 µM (inactive)	> 100 µM (inactive)	> 100 µM (inactive)	> 100 µM (inactive)	> 100 µM (inactive)
COC(=O)/C(=C(\C)NC(C)=O)c1c(C(=O)OC)[nH]c2ccccc12	> 100 µM (inactive)	> 100 µM (inactive)	> 100 µM (inactive)	> 100 µM (inactive)	> 100 µM (inactive)	> 100 µM (inactive)	> 100 µM (inactive)	> 100 µM (inactive)	> 100 µM (inactive)	> 100 µM (inactive)	> 100 µM (inactive)	> 100 µM (inactive)	> 100 µM (inactive)	> 100 µM (inactive)	> 100 µM (inactive)	> 100 µM (inactive)	> 100 µM (inactive)	> 100 µM (inactive)	–
CC1=CC(C)(C)NN1C1=NS(=O)(=O)c2ccccc2N1C	> 100 µM (inactive)	> 100 µM (inactive)	> 100 µM (inactive)	> 100 µM (inactive)	> 100 µM (inactive)	44.3 µM (inactive)	> 100 µM (inactive)	> 100 µM (inactive)	> 100 µM (inactive)	> 100 µM (inactive)	98.9 µM (inactive)	–	> 100 µM (inactive)	> 100 µM (inactive)	> 100 µM (inactive)	> 100 µM (inactive)	> 100 µM (inactive)	> 100 µM (inactive)	–
COc1ccc(/C=C2\Sc3nnc(C)n3N=C2c2cc(F)c(Cl)cc2Cl)cc1OC	2.97 µM (inactive)	5.33 µM (inactive)	14.6 µM (inactive)	17 µM (inactive)	15.2 µM (inactive)	13.2 µM (inactive)	22.3 µM (inactive)	17.8 µM (inactive)	13.8 µM (inactive)	21.2 µM (inactive)	4.18 µM (inactive)	2.58 µM (inactive)	10.8 µM (inactive)	19.3 µM (inactive)	18.8 µM (inactive)	3.09 µM (inactive)	15.5 µM (inactive)	4.52 µM (inactive)	–
COc1ccc(N2C(=O)CC(=O)N(C(=O)COc3ccc(OCC(=O)N4C(=O)CC(=O)N(c5ccc(OC)cc5)C4=S)cc3)C2=S)cc1	36.5 µM (inactive)	40.1 µM (inactive)	66.4 µM (inactive)	–	15.6 µM (inactive)	27 µM (inactive)	18.9 µM (inactive)	50.1 µM (inactive)	–	35.8 µM (inactive)	–	19.6 µM (inactive)	92.9 µM (inactive)	61.7 µM (inactive)	36.8 µM (inactive)	41.4 µM (inactive)	–	–	54 µM (inactive)
O=C1/C(=C/c2cc3c(=O)c4ccccc4sc3s2)NC(=S)N1c1ccccc1	23.7 µM (inactive)	> 100 µM (inactive)	> 100 µM (inactive)	–	> 100 µM (inactive)	> 100 µM (inactive)	> 100 µM (inactive)	51.8 µM (inactive)	> 100 µM (inactive)	–	–	> 100 µM (inactive)	48.3 µM (inactive)	> 100 µM (inactive)	91.2 µM (inactive)	40.6 µM (inactive)	> 100 µM (inactive)	> 100 µM (inactive)	5.11 µM (inactive)
O=C1NC(Cc2c[nH]c3ccccc23)C(=O)N2C(c3ccccc3)c3[nH]c4ccccc4c3C[C@@H]12 (stereo partly specified)	16.2 µM (inactive)	31.9 µM (inactive)	21.6 µM (inactive)	–	19.3 µM (inactive)	26.9 µM (inactive)	21.1 µM (inactive)	21.1 µM (inactive)	19.7 µM (inactive)	25.8 µM (inactive)	–	20 µM (inactive)	22.5 µM (inactive)	29.8 µM (inactive)	17.5 µM (inactive)	21 µM (inactive)	31.3 µM (inactive)	15.5 µM (inactive)	–
